Laboratory results: patent US20040086942A1, “Ige receptor antagonists” (priority 2003, published 2004)
Like-named read-outs stand apart in the source and are kept apart here. Where a SMILES comes first, the peptide text is derived from it. Bridges are numbered along the chain shown (N, C = ends). [ ]: non-standard residue; d: D form.

How the values were obtained:
[1] = molecular target: T1, alpha subunit of the human FcεRI receptor (Homo sapiens, UniProt P12319); assay: cell-based 125I-IgE binding inhibition assay on CHO FcεRI+ cells; conditions: for fold reduction in inhibition/binding: truncations and alanine substitutions of IGE063
T1 construct: expressed in transfected cells; host or cells: Chinese hamster ovary (CHO FcεRI+) cells
T1 sequence (P12319 26-257): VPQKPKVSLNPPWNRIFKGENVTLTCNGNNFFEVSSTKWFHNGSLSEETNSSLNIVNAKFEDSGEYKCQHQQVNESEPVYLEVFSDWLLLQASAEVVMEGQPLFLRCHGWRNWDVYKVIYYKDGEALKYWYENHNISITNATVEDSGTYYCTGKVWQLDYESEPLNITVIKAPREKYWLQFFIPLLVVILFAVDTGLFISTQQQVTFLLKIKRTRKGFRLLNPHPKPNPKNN
Experimental: . The following day the cells were rinsed three times with PBS and then once with F12/DMEM. Peptide stocks were reconstituted in 100 mM Hepes buffered water, pH 7.2, at a concentration of 5 mg/mL. Working concentrations of the peptide were diluted in assay buffer (see below). 75 ul, of a desired concentration of peptide was added to the top row of a separate 96 well microtiter plate and serially diluted 1:3 in 50 uL of the assay buffer (F12/DMEM, 1% BSA, 0.05% NaN3 and […] Hepes pH 7.2). Starting concentrations ranged from 50-500 uM. Next, 50 uL of the diluted peptide was transferred to the 96 microtiter well plate containing a monolayer of CHO FcεRI+ cells. After a 1 hour incubation at room temperature, 50 uL of ^125I-IgE (1.5 nM) was added to each well and incubated for an additional 45-60 minutes at 4° C. followed by 5 washes with 200 uL of assay buffer. Cells were solubilized with 200 uL of 1 N NaOH and transferred to a 96 microtiter tube for counting in a gamma counter to determine counts bound. The data were plotted using KaleidaGraph 3.0 and fitted using 4-parameter fits. IC50 values were determined for each peptide.
Six peptides based on selected clones from library #516 were synthesized and assayed for the ability to inhibit the binding of ^125I-IgE to a Chinese hamster ovary cell line expressing the alpha subunit of the IgE high affinity receptor, FcεRI. The peptides were synthesized as nine residue monomers and oxidized to allow the formation of a disulfide bridge resulting in a cyclic peptide. The size of each peptide was confirmed by mass spectrometry.

[2] = 2D NMR structural score versus reference peptide; format: physicochemical; design: key to Struct. Score: +++ indicates the peptide is structured similarly to IGE063 (SEQ ID NO:49); + indicates the peptide is structured similarly to IGE063 (SEQ ID NO:49), but is less stable; −/+ indicates the peptide has some elements of stable structure, but the conformation differs from the reference structure (e.g., a different turn type is evident); − indicates the peptide is predominantly unstructured in aqueous solution; key to Structure Score: +++, peptide structurally similar to reference; +, structurally similar to reference but significantly less stable; +/−, peptide has some elements of stable structure, but the conformation differs from the reference structure; −, peptide is predominantly unstructured; *peptide IGE037 (SEQ ID NO:128) was initially unstructured (monomeric form), but became structured after spontaneous dimer formation; conditions: for Struct. Score: reference IGE063
Experimental: Peptides were evaluated by 2D NMR spectroscopy to assess the effect of substitutions on the three-dimensional structure of the peptide analog. All peptides with a structural score indicated in Table 5 were analyzed by 2D NMR spectroscopy; backbone ^1H resonances were assigned and ^3JHN-Hα coupling constants were measured and compared to the reference peptide (IGE063, SEQ ID NO:49; see Example 5). Peptides are defined to be of similar structure to the reference peptide provided chemical shifts, coupling constants, and NOEs are consistent with that structure.
A structural score was assigned to peptides analyzed by 2D NMR spectroscopy. For each of these peptides, backbone ^1H resonances have been assigned, and the ^3JHN-Ha coupling constants have been measured and compared to the reference peptide (i.e., IGE134 (SEQ ID NOS:155, 171)). Peptides are defined to be of similar structure to the reference peptide provided. chemical shifts, coupling constants, and NOEs are consistent with that structure.

FcεRI-IgG = molecular target: T2, FcεRI-IgG (Homo sapiens, UniProt P12319); assay: g3 phage competitive binding ELISA (competition with soluble FcεRI-IgG); conditions: g3 phage clones; immobilized FcεRI-IgG, titrated soluble FcεRI-IgG; read-out: Phage IC50
T2 construct: consisting of the extracellular domain of FcεR Ifused to the Fc domain of IgG; host or cells: CHO cells
T2 sequence (P12319 26-205 limits assumed): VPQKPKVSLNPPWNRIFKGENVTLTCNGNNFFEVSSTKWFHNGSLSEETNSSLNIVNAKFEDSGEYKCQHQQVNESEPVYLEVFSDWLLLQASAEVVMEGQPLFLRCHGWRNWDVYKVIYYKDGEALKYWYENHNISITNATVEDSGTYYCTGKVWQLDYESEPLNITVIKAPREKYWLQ
Experimental: A phage based competitive binding ELISA for immobilized FcεRI-IgG in the presence of titrated amounts of soluble FcεRI-IgG was performed on each of the clones.
Peptide sequences from g8p-fused phage clones that specifically bound FcεRI-IgG were transferred onto a g3p-display format for monovalent phage display (Bass et al., Proteins 8, 309-314 (1990); Lowman et al., Biochemistry 30, 10832-10838 (1991)). An oligonucleotide encoding for each desired peptide with additional 5′ and 3′ base pair that overlapped with g3 was synthesized. This oligonucleotide was annealed with a g3 single stranded DNA phagemid template. The mutagenesis reaction was transformed into XL-1 Blue E. coli and plated on LB-carb+ agar plates. Individual colonies were propagated in 5 mL of 2YT broth, tetracycline, carbenicillin and VCSM13 helper phage (Stratagene). Single stranded DNA was isolated from the purified phage particles and sequenced to confirm the insertion of the phage peptide sequence. 25 mL preparations of g3 phage clones were propagated overnight and purified by PEG precipitation. After resuspension of the phage pellet in 1.0 mL of PBS, it was serially diluted ⅓ and incubated with immobilized FcεRI-IgG 2 ug/mL in a 96 well Maxisorp microtiter plate for 1 hour at room temperature. The wells were washed 10× with PBST then incubated with 100 uL of anti M13 phage HRP as described above. An OD(492) value corresponding to less than 50% binding was selected and the purified phage clones were diluted to yield this normalized level of signal. […] The mixture was then transferred to 96 well microtiter dishes containing immobilized FcεRI-IgG. After a 1-hour incubation period, the plates were washed 10 times, incubated with anti M13-HRP conjugated antibody and developed with OPD as described above. The data was plotted, and 4-parameter fits (KaleidaGraph 3.0) used for calculation of IC50 values.
Alanine substitutions were made at various positions throughout the peptide sequence for monovalent (g3p) phage display using site directed mutagenesis as described (Kunkel et al., Methods Enzymol. 204, 125-139 (1991)). In addition, stepwise N-terminal and C-terminal truncations of the peptide sequence were constructed. All constructs were made by designing oligonucleotides corresponding to the desired substitution or truncation, with an additional 18 bp of DNA overlapping the peptide or g3 phage DNA sequence. The phage clones were propagated overnight following infection in XL-1 Blue E. coli. Purified phage preparations were titered and assayed for binding to immobilized receptor. FcεRI-IgG competition assays were performed as described above.

[3] = inhibition of labeled IgE-binding to CHO FcεRI+ cells, read-out: Mean IC50(uM) ± S.D.
[4] = IGE037: initially, read-out: IC50

Compound	IC50 [1, 3]	Struct. Score [2]	fold reduction in inhibition/binding [1]	further results
CSCC[C@H](NC(=O)[C@@H]1CSSC[C@H](NC(=O)[C@H](CCCNC(=N)N)NC(=O)[C@@H]2CCCN2C(=O)[C@H](CC(C)C)NC(=O)[C@H](CC(N)=O)NC(C)=O)C(=O)N[C@@H]([C@@H](C)O)C(=O)N[C@@H](CCC(=O)O)C(=O)NCC(=O)N2CCC[C@H]2C(=O)N[C@@H](Cc2c[nH]c3ccccc23)C(=O)NCC(=O)N[C@@H](Cc2c[nH]c3ccccc23)C(=O)N[C@@H](C(C)C)C(=O)N1)C(=O)N[C@@H](C)C(=O)N[C@@H](CC(=O)O)C(=O)N[C@@H](CC(=O)O)C(N)=O [IGE031, Ac-NLPRCTEGPWGWVCMADD-nh2] (Ac-NLPRCTEGPWGWVCMADD-NH2; disulfide 5-14)	1.1 ± 0.7 µM	+++		
CC(=O)N[C@@H](C)C(=O)N[C@@H](CC(C)C)C(=O)N[C@H]1CSSC[C@@H](C(=O)N[C@@H](Cc2ccc(O)cc2)C(=O)N[C@H](C(N)=O)C(C)C)NC(=O)[C@H](C(C)C)NC(=O)[C@H](C)NC(=O)[C@@H]2CCCN2C1=O [IGE038, Ac-ALCPAVCYV-nh2] (Ac-ALCPAVCYV-NH2; disulfide 3-7)				IC50 [1, 4]: > 500 µM; Structure Score ([2]; reference IGE134): −
CSCC[C@H](NC(=O)[C@@H]1CSSC[C@H](NC(=O)[C@H](CCCNC(=N)N)NC(=O)[C@@H]2CCCN2C(=O)[C@H](CC(C)C)NC(=O)[C@@H](N)CC(N)=O)C(=O)N[C@@H]([C@@H](C)O)C(=O)N[C@@H](CCC(=O)O)C(=O)NCC(=O)N2CCC[C@H]2C(=O)N[C@@H](Cc2c[nH]c3ccccc23)C(=O)NCC(=O)N[C@@H](Cc2c[nH]c3ccccc23)C(=O)N[C@@H](C(C)C)C(=O)N1)C(=O)O [IGE062, NLPRCTEGPWGWVCM] (H-NLPRCTEGPWGWVCM-OH; disulfide 5-14; N-terminus and C-terminus assumed)	1 ± 0.6 µM	+++		
CSCC[C@H](NC(=O)[C@@H]1CSSC[C@H](NC(=O)[C@H](CCCNC(=N)N)NC(=O)[C@@H]2CCCN2C(=O)[C@H](CC(C)C)NC(=O)[C@H](CC(N)=O)NC(C)=O)C(=O)N[C@@H]([C@@H](C)O)C(=O)N[C@@H](CCC(=O)O)C(=O)NCC(=O)N2CCC[C@H]2C(=O)N[C@@H](Cc2c[nH]c3ccccc23)C(=O)NCC(=O)N[C@@H](Cc2c[nH]c3ccccc23)C(=O)N[C@@H](C(C)C)C(=O)N1)C(=O)O [IGE063, Ac-NLPRCTEGPWGWVCM] (Ac-NLPRCTEGPWGWVCM-OH; disulfide 5-14)	1.8 ± 0.7 µM	+++		IC50 [1, 4]: ~1 µM
CSCC[C@H](NC(=O)[C@@H]1CSSC[C@H](NC(=O)[C@H](CCCNC(=N)N)NC(=O)[C@@H]2CCCN2C(=O)[C@H](CC(C)C)NC(=O)[C@@H](N)CC(N)=O)C(=O)N[C@@H]([C@@H](C)O)C(=O)N[C@@H](CCC(=O)O)C(=O)NCC(=O)N2CCC[C@H]2C(=O)N[C@@H](Cc2c[nH]c3ccccc23)C(=O)NCC(=O)N[C@@H](C)C(=O)N[C@@H](C(C)C)C(=O)N1)C(=O)O [IGE073, NLPRCTEGPWGAVCM] (H-NLPRCTEGPWGAVCM-OH; disulfide 5-14; N-terminus and C-terminus assumed)		+	65 fold	
CSCC[C@H](NC(=O)[C@@H]1CSSC[C@H](NC(=O)[C@H](CCCNC(=N)N)NC(=O)[C@@H]2CCCN2C(=O)[C@H](CC(C)C)NC(=O)[C@@H](N)CC(N)=O)C(=O)N[C@@H]([C@@H](C)O)C(=O)N[C@@H](CCC(=O)O)C(=O)NCC(=O)N2CCC[C@H]2C(=O)N[C@@H](Cc2c[nH]c3ccccc23)C(=O)N[C@@H](C)C(=O)N[C@@H](Cc2c[nH]c3ccccc23)C(=O)N[C@@H](C(C)C)C(=O)N1)C(=O)O [IGE074, NLPRCTEGPWAWVCM] (H-NLPRCTEGPWAWVCM-OH; disulfide 5-14)		+	30 fold	
CSCC[C@H](NC(=O)[C@@H]1CSSC[C@H](NC(=O)[C@H](CCCNC(=N)N)NC(=O)[C@@H]2CCCN2C(=O)[C@H](CC(C)C)NC(=O)[C@@H](N)CC(N)=O)C(=O)N[C@@H]([C@@H](C)O)C(=O)N[C@@H](CCC(=O)O)C(=O)N[C@@H](C)C(=O)N2CCC[C@H]2C(=O)N[C@@H](Cc2c[nH]c3ccccc23)C(=O)NCC(=O)N[C@@H](Cc2c[nH]c3ccccc23)C(=O)N[C@@H](C(C)C)C(=O)N1)C(=O)O [IGE079, NLPRCTEAPWGWVCM] (H-NLPRCTEAPWGWVCM-OH; disulfide 5-14; N-terminus and C-terminus assumed)		+++	256 fold	
CSCC[C@H](NC(=O)[C@@H]1CSSC[C@H](NC(=O)[C@H](CCCNC(=N)N)NC(=O)[C@@H]2CCCN2C(=O)[C@H](CC(C)C)NC(=O)[C@H](CC(N)=O)NC(C)=O)C(=O)N[C@@H]([C@@H](C)O)C(=O)N[C@@H](CCC(=O)O)C(=O)NCC(=O)N2CCC[C@H]2C(=O)N[C@@H](Cc2c[nH]c3ccccc23)C(=O)N[C@H](CCC(=O)O)C(=O)N[C@@H](Cc2c[nH]c3ccccc23)C(=O)N[C@@H](C(C)C)C(=O)N1)C(=O)O [IGE114, Ac-NLPRCTEGPWeWVCM] (Ac-NLPRCTEGPW[dE]WVCM-OH; disulfide 5-14)	1.7 µM	+++		
AMAQCTEGPWGWVCMAAD [g3b.5]				IC50 (FcεRI-IgG): 0.01 µM
Ac-NLPRCTEGPWGWVCM [IGE108]		+		
